From patent US12071414B2, “Apelin receptor agonists and methods of use thereof” (Sanford Burnham Prebys Medical Discovery Institute, priority 2015, dated 2024) come the findings set out here.

pEC50: −log10 of the molar value. Where only a bound is given, the exact number is not on record here.

In the assay the target is T1, human apelin receptor (APJ, AGTRL-one, APLNR) (Homo sapiens, UniProt P35414).
T1 construct: host or cells: Chinese hamster ovary cells, stably integrated receptor
T1 sequence (P35414 1-380): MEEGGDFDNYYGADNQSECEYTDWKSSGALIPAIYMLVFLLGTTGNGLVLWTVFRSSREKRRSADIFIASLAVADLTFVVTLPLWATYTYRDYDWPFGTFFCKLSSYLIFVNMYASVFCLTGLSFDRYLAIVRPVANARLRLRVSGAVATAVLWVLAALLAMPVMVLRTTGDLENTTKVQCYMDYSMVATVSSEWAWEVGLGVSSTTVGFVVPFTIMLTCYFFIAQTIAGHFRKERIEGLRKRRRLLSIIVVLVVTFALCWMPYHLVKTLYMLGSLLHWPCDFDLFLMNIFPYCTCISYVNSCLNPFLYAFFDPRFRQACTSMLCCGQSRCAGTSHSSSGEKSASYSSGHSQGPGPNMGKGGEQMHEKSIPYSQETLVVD
As to the kind of experiment: cell-based cAMP TR-FRET assay of apelin receptor activation. To be noted: CHO cells expressing human APJ, forskolin-stimulated cAMP, 0.5 h incubation, 50% of control (apelin-13, 1 nM) response; read-out: Potency Category (EC50). The method, then:
The assays disclosed herein were performed using cell lines from DiscoveX, Inc. Biological activity was determined to the cell—based assay. This assay detects activation of the receptor by reporting on intracellular cyclic adenosine monophosphate (cAMP) level. Chinese hamster ovary cells engineered to express the stably integrated human apelin receptor (APJ, AGTRL—one, APLNR), pleaded into the wells of the microtiter plate. Cells were stimulated with […] to increase intracellular cyclic AMP. Immediately following, compounds were added to the range of final concentrations 0.0-100 μM, in DMSO (not to exceed a final DMSO concentration greater than 1% ν/ν), and allowed to incubate with the cells for 0.5 h. At the end of the incubation, cells were lysed to stop APJ signaling and cAMP was quantified using a commercially available competitive immunoassay kit that applies homogenous time—resolved florescence energy transfer (TR—FRET). The assay is based on the competition between a europium (Eu) chelate—labeled cAMP donor tracer and cellular cAMP for binding sites on a cAMP—specific monoclonal antibody labeled with an acceptor fluorophore. When antibodies are bound to the cAMP tracer light emissions at 320 nm stimulate the energy transfer from the donor to the acceptor, which in turn emits light at 665 nm. In the presence of competitive unlabeled cAMP (derived from the activity of the receptor or forskolin-stimulated production of cAMP), the labelled cAMP tracer is dissociated from the cAMP antibody, resulting in a loss of FRET signal. The amount of light emitted by the FRET is inversely proportional to the cAMP generated by the cell/receptor system. Potency and efficacy at APJ are reported in reference to the canonical APJ receptor agonist apelin—13 when tested at 1 nM. […] Compound efficacy (% response) is reported as a percentage of the maximal apein-13 response at 1 nM (control). Potencies were calculated by fitting a […] logistic curve to concentration response consisting of at least 10 discrete data points spanning effective range of the compounds in the cell-based assay that measures cAMP. […] Category B is 200-500 nM; Category C is 100-200 nM; Category D is 50-100 nM; and Category E is <50 nM.
One may read the pEC50 as −log10 of the EC50, conventionally taken in molar units. On to `CCS(=O)(=O)c1ccc(C(Oc2ccc(C#N)cc2)C(=O)Nc2nc3ccc4c(c3s2)OCCO4)cc1` (stereo not drawn), for which the pEC50 is 7.00 to 7.30.
As to `COc1cc2nc(NC(=O)Cc3ccc(S(=O)(=O)C(C)C)cc3)sc2cc1OC`, the negative-log EC50 (pEC50) was < 6.30.
As for `COc1cc2nc(NC(=O)Cc3ccc(S(=O)(=O)CC4CC4)cc3)sc2cc1OC`, the figure is < 6.30.
With `COc1cc2nc(NC(=O)C(Oc3ccc(C#N)cc3)c3ccc(C(=O)NCCO)cc3)sc2cc1OC` (stereo not drawn), the pEC50 is 7.00 to 7.30.
On to `CCCCOc1ccc(OC(C(=O)Nc2nc3cc(OC)c(OC)cc3s2)c2ccc(S(=O)(=O)CC)cc2)cc1` (stereo not drawn), for which the pEC50 was < 6.30.
Consider `CCS(=O)(=O)c1ccc(C(Oc2ccc(C#N)cc2)C(=O)Nc2nc3c4c(ccc3s2)OCO4)cc1` (stereo not drawn), for which the pEC50 is < 6.30.
For `CCS(=O)(=O)c1ccc(C(Oc2ccc(C#N)cc2)C(=O)Nc2nc3ccc(F)c(OC)c3s2)cc1` (stereo not drawn), the pEC50 is < 6.30.
The value for `COc1cc2nc(NC(=O)C(Oc3ccc(C(=O)NCCO)cc3)c3ccc(C#N)cc3)sc2cc1OC` (stereo not drawn) was 6.30 to 6.70; that for `CCS(=O)(=O)c1ccc(C(C)C(=O)Nc2nc3cc(OC)c(OC)cc3s2)cc1` (stereo not drawn) was < 6.30.
As for `COc1cc2nc(NC(=O)C(Oc3ccc(C#N)cc3)c3ccc(C(=O)N(C)C)cc3)oc2cc1OC` (stereo not drawn), the figure is > 7.30; as for `COc1cc2nc(NC(=O)Cc3ccc(C(=O)N(C)C)cc3)sc2cc1OC`, < 6.30.
Turning to `COc1cc2nc(NC(=O)C(Oc3ccc(C#N)cc3)c3ccc(C(=O)O)cc3)sc2cc1OC` (stereo not drawn), the pEC50 is < 6.30.
As for `COc1cc2nc(NC(=O)Cc3ccccc3C(=O)N(C)C)sc2cc1OC`, the figure is < 6.30; as for `CCS(=O)(=O)c1ccc(C(Oc2ccc(C#N)cc2)C(=O)Nc2nc3cc(C)c(OC)cc3s2)cc1` (stereo not drawn), < 6.30; as for `CCS(=O)(=O)c1ccc(C(Oc2ccc(C#N)cc2Cl)C(=O)Nc2nc3cc(OC)c(OC)cc3s2)cc1` (stereo not drawn), > 7.30.
As for `C#Cc1ccc(OC(C(=O)Nc2nc3cc(OC)c(OC)cc3s2)c2ccc(S(=O)(=O)CC)cc2)cc1` (stereo not drawn), the figure is 6.70 to 7.00.
The value for `COc1cc2nc(NC(=O)C(Oc3ccc(C#N)cc3)c3ccc(S(=O)(=O)c4ccc(F)cc4)cc3)sc2cc1OC` (stereo not drawn) was 6.70 to 7.00; that for `CCS(=O)(=O)c1ccc(C(Oc2ccc(Br)cc2)C(=O)Nc2nc3cc(OC)c(OC)cc3s2)cc1` (stereo not drawn) was 6.30 to 6.70; that for `CCS(=O)(=O)c1ccc(C(Nc2ccccc2C)C(=O)Nc2nc3cc(OC)c(OC)cc3s2)cc1` (stereo not drawn) was < 6.30.
As to `CCS(=O)(=O)c1cccc(C(Oc2ccc(C#N)cc2)C(=O)Nc2nc3ccc(OCCOC)cc3s2)c1` (stereo not drawn), the pEC50 is < 6.30.
The value for `COc1cc2nc(NC(=O)C(Oc3ccc(C(=O)N(C)C)cc3)c3ccc(C#N)cc3)sc2cc1OC` (stereo not drawn) was > 7.30.
The value for `COc1cc2nc(NC(=O)C(Oc3ccc(C#N)cc3)c3ccc(C(=O)N4CCNCC4)cc3)sc2cc1OC` (stereo not drawn) was 6.30 to 6.70; that for `CCS(=O)(=O)c1ccc(C(Oc2ccc(C(=O)N(C)C)cc2)C(=O)Nc2nc3cc(OC)c(OC)cc3s2)cc1` (stereo not drawn) was > 7.30.
The value for `CCS(=O)(=O)c1ccc(CC(=O)Nc2nc3cc(OC)c(O)cc3[nH]2)cc1` was < 6.30.
`CCS(=O)(=O)c1ccc(C(Oc2ccc(C#N)cc2)C(=O)Nc2nc3ccc(OCCO)cc3s2)cc1` (stereo not drawn): the pEC50 is < 6.30.
For `COC(=O)c1cccc(CC(=O)Nc2nc3cc(OC)c(OC)cc3s2)c1`, the pEC50 was < 6.30.
On to `CCS(=O)(=O)c1ccc(C(Oc2ccc(C#N)cc2)C(=O)Nc2nc3ccc(N4CCOCC4)cc3s2)cc1` (stereo not drawn), for which the pEC50 is < 6.30.
As to `COc1cc2nc(NC(=O)C(Oc3ccc(C#N)cc3)c3ccc(S(=O)(=O)Cc4ccccc4)cc3)sc2cc1OC` (stereo not drawn), the pEC50 is 6.30 to 6.70.
Turning to `COc1ccc(S(=O)(=O)c2cccc(C(Oc3ccc(C#N)cc3)C(=O)Nc3nc4cc(OC)c(OC)cc4s3)c2)cc1` (stereo not drawn), the pEC50 is < 6.30.
Take `CCOc1c(OC)ccc2nc(NC(=O)C(Oc3ccc(C#N)cc3)c3ccc(S(=O)(=O)CC)cc3)sc12` (stereo not drawn): the pEC50 is > 7.30.
The value for `COc1cc2nc(NC(=O)C(Oc3ccc(C#N)cc3)c3ccc(C(=O)NCCN4CCOCC4)cc3)oc2cc1OC` (stereo not drawn) was 6.30 to 6.70; that for `CCS(=O)(=O)c1ccc(C(OCC=C(C)C)C(=O)Nc2nc3cc(OC)c(OC)cc3s2)cc1` (stereo not drawn) was < 6.30.
For the compound `COc1cc2nc(NC(=O)C(Oc3ccc(OCCN4CCCCC4)cc3)c3ccc(C#N)cc3)sc2cc1OC` (stereo not drawn), the pEC50 is 7.00 to 7.30.
The value for `CCS(=O)(=O)c1ccc(C(Oc2ccc(C#N)cc2)C(=O)Nc2nc3ccc(OCCN4CCN(C)CC4)cc3s2)cc1` (stereo not drawn) was < 6.30.
As for `CCC(C(=O)Nc1nc2cc(OC)c(OC)cc2s1)c1ccc(S(=O)(=O)CC)cc1` (stereo not drawn), the figure is < 6.30.
The value for `COc1cc2nc(NC(=O)Cc3cccc(S(=O)(=O)C4CCCC4)c3)sc2cc1OC` was < 6.30; that for `CCS(=O)(=O)c1ccc(CC(=O)Nc2nc3c4c(ccc3s2)OCO4)cc1` was < 6.30; that for `COc1cc2nc(NC(=O)Cc3ccc(C(=O)O)cc3)sc2cc1OC` was < 6.30.
Regarding `CCS(=O)(=O)c1ccc(C(Oc2ccc(OC)cc2)C(=O)Nc2nc3ccc(N4CCN(C)CC4)cc3s2)cc1` (stereo not drawn), the pEC50 was < 6.30.
As for `CCS(=O)(=O)c1cccc(C(Oc2ccc(C#N)cc2)C(=O)Nc2nc3cc(OC)c(OC)cc3s2)c1` (stereo not drawn), the figure is 6.30 to 6.70; as for `CCS(=O)(=O)c1ccc(C(Oc2ccc(C(C)C)cc2)C(=O)Nc2nc3cc(OC)c(OC)cc3s2)cc1` (stereo not drawn), 6.30 to 6.70; as for `CCS(=O)(=O)c1ccc(C(Oc2ccc(C#N)cc2)C(=O)Nc2nc3cc(OC)c(Cl)cc3s2)cc1` (stereo not drawn), < 6.30.
As to `COc1cc2nc(NC(=O)C(Oc3ccc(C#N)cc3)c3ccc(F)cc3)sc2cc1OC` (stereo not drawn), the pEC50 is 6.30 to 6.70.
The value for `COc1cc2nc(NC(=O)C(Oc3ccc(OCCN(C)C)cc3)c3ccc(C#N)cc3)sc2cc1OC` (stereo not drawn) was 6.70 to 7.00; that for `CCS(=O)(=O)c1ccc(C(Oc2ccc(OC)cc2)C(=O)Nc2nc3ccc4c(c3s2)OCCO4)cc1` (stereo not drawn) was < 6.30.
Turning to `COc1cc2nc(NC(=O)C(Oc3ccc(C#N)cc3)c3ccccc3S(=O)(=O)Cc3ccccc3)sc2cc1OC` (stereo not drawn), the pEC50 was > 7.30.
The value for `COC(=O)c1ccc(OC(C(=O)Nc2nc3cc(OC)c(OC)cc3s2)c2ccc(C#N)cc2)cc1` (stereo not drawn) was > 7.30; that for `CCS(=O)(=O)c1ccc(C(Nc2ccc(C#N)cc2)C(=O)Nc2nc3cc(OC)c(OC)cc3s2)cc1` (stereo not drawn) was > 7.30.
The value for `COc1cc2nc(NC(=O)C(Oc3ccc(C#N)cc3)c3ccc(C(F)(F)F)cc3)sc2cc1OC` (stereo not drawn) was < 6.30; that for `COc1cc2nc(NC(=O)C(Oc3ccc(C(=O)NCCN4CCCCC4)cc3)c3ccc(C#N)cc3)sc2cc1OC` (stereo not drawn) was > 7.30.
The value for `CCS(=O)(=O)c1ccc(C(Oc2ccc(C#N)cc2)C(=O)Nc2nc3ccc(OC)cc3s2)cc1` (stereo not drawn) was < 6.30; that for `COC(=O)c1ccc(C(Oc2ccc(C#N)cc2)C(=O)Nc2nc3cc(OC)c(OC)cc3s2)cc1` (stereo not drawn) was 6.70 to 7.00; that for `COc1cc2nc(NC(=O)C(Oc3ccc(C#N)cc3)c3ccc(S(=O)(=O)c4ccc(Cl)cc4)cc3)sc2cc1OC` (stereo not drawn) was 6.30 to 6.70.
For `COc1ccc(C(Oc2ccc(C#N)cc2)C(=O)Nc2nc3cc(OC)c(OC)cc3s2)cc1` (stereo not drawn), the pEC50 is > 7.30.
Regarding `COc1cc2nc(NC(=O)C(Oc3ccc(C(=O)NCCN4CCOCC4)cc3)c3ccc(C#N)cc3)sc2cc1OC` (stereo not drawn), the pEC50 is 6.30 to 6.70.
Take `CCS(=O)(=O)c1ccccc1C(Oc1ccc(C#N)cc1)C(=O)Nc1nc2cc(OC)c(OC)cc2s1` (stereo not drawn): the negative logarithm of the EC50 (pEC50) was > 7.30.
Take `COc1cc2nc(NC(=O)C(Oc3ccc(C#N)cc3)c3ccc(Cl)cc3)sc2cc1OC` (stereo not drawn): the pEC50 is 6.70 to 7.00.
